Laboratory results as given in ChEMBL document CHEMBL5465560, “Selectivity Literature for EUbOPEN Chemogenomic Library” (2024).
Values belong to the compound of their own block, whether it stands above or below them.

Assays:
[1] = biological target: T1, Testis-specific serine/threonine-protein kinase 2 (Homo sapiens) (UniProt Q96PF2); test: Selectivity interaction (SelectScreen profiling (Invitrogen)) EUB0000607a TSSK2; details: at 2 µM
T1 sequence (whole entry): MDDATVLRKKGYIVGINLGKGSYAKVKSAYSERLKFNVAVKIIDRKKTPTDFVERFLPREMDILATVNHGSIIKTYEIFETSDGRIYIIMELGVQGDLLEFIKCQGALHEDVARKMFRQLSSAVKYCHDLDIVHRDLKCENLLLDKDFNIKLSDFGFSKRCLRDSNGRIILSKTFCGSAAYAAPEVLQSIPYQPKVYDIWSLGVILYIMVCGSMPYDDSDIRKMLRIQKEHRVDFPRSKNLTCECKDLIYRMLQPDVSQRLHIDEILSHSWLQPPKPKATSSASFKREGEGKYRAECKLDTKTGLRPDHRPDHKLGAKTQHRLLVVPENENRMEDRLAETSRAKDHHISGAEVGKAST

Insulin receptor = Insulin receptor (Homo sapiens, UniProt P06213); test: Selectivity interaction (Upstate Kinase Profiler service (Millipore)) EUB0000056c INSR; details: at 1 µM
Chain of Insulin receptor (P06213 28-758 limits assumed): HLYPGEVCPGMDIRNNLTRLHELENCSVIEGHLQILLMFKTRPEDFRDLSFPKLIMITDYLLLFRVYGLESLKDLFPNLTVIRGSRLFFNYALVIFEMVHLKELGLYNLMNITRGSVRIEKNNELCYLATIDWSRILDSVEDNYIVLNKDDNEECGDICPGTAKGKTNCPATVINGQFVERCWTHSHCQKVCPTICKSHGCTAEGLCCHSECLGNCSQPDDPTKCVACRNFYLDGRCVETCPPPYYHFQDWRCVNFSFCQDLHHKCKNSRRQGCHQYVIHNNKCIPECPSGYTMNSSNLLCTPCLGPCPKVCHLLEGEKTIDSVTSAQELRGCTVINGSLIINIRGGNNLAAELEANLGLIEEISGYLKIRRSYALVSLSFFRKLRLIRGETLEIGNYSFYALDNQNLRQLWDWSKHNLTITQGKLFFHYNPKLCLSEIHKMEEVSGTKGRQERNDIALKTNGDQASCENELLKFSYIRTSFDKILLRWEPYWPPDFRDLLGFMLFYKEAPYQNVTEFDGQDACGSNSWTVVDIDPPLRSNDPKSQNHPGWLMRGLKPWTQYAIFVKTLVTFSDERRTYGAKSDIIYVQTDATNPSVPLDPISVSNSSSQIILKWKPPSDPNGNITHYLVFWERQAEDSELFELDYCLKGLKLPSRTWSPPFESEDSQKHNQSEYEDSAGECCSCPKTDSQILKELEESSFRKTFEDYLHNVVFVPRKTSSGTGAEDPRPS
Chain of Insulin receptor (P06213 763-1382 limits assumed): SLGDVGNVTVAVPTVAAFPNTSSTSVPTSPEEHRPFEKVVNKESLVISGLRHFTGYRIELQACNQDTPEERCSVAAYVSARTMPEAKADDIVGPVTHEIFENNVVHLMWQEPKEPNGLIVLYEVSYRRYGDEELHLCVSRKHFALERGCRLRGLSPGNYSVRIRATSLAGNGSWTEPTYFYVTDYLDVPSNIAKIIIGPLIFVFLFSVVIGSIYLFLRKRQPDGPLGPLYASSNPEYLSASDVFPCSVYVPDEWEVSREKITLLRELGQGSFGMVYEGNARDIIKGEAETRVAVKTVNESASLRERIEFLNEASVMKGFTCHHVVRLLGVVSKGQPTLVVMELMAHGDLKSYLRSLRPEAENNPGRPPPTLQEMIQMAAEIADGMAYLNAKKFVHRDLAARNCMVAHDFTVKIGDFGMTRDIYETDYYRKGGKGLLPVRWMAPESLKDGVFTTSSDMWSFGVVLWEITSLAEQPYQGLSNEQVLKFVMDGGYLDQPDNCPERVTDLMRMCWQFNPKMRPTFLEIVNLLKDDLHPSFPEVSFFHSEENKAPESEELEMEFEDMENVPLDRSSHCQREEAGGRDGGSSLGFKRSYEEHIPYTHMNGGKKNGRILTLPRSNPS

[2] = biological target: Tyrosine-protein kinase JAK2 (Homo sapiens, UniProt O60674); test: Selectivity interaction (Kinase panel (Invitrogen)) EUB0000639a JAK2; details: at 200 nM
Chain of Tyrosine-protein kinase JAK2 (O60674 whole entry): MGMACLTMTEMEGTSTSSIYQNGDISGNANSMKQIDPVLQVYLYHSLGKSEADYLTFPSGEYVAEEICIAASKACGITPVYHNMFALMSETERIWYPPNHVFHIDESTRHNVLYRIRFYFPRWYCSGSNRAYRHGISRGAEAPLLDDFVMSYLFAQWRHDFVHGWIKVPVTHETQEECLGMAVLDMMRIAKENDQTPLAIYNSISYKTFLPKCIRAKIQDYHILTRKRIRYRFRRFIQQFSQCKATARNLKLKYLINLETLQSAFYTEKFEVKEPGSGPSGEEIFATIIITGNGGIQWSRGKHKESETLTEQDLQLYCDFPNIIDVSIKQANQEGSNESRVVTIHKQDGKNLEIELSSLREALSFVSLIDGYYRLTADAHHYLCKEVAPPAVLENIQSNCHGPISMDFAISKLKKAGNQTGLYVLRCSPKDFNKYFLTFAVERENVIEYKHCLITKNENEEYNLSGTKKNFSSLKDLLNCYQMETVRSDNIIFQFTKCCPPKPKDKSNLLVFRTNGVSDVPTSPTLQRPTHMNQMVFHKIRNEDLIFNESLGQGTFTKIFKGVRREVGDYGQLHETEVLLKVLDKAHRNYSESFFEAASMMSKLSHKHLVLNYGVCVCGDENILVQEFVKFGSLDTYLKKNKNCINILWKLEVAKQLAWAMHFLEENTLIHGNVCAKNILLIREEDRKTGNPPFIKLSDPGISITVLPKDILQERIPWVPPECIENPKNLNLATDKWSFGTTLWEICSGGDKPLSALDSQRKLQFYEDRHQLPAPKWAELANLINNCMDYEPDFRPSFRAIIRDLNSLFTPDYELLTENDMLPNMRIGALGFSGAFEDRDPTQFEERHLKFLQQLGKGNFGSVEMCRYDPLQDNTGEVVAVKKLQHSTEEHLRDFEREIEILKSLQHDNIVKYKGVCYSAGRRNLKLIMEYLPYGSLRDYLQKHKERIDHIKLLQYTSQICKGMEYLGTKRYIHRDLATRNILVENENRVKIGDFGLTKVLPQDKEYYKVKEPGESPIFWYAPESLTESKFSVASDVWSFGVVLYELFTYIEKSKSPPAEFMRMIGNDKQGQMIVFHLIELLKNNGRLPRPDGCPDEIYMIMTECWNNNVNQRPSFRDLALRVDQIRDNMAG

[3] = biological target: Phosphatidylinositol 3-kinase catalytic subunit type 3 (Homo sapiens, UniProt Q8NEB9); test: Selectivity interaction (Kinase panel (Invitrogen)) EUB0000639a PIK3C3; details: at 200 nM
Chain of Phosphatidylinositol 3-kinase catalytic subunit type 3 (Q8NEB9 whole entry): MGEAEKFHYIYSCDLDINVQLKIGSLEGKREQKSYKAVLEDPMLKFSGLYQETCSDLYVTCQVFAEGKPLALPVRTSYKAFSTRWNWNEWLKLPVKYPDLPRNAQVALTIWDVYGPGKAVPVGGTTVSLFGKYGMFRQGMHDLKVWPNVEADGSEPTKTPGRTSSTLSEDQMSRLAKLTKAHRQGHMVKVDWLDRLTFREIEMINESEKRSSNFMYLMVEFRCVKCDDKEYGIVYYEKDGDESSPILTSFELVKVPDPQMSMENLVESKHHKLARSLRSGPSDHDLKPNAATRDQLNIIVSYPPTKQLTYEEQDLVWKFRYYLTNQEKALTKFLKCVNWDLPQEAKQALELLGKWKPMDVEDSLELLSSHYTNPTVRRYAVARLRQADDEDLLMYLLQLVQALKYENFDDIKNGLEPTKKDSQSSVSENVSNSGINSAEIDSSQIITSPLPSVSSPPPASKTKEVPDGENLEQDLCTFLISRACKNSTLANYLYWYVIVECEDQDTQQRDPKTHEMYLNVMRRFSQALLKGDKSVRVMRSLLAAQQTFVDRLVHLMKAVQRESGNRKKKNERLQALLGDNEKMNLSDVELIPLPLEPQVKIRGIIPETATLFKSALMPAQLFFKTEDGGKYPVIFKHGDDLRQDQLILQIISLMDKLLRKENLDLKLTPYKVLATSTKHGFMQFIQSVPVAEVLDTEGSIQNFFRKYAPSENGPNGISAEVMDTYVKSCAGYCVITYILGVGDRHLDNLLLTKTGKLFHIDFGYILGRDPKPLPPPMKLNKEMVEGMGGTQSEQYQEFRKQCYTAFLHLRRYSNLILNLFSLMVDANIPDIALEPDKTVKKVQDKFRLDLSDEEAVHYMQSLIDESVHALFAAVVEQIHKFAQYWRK

[4] = biological target: Mitogen-activated protein kinase 3 (Homo sapiens, UniProt P27361); test: Selectivity interaction (ProQinase) EUB0000171b MAPK3
Chain of Mitogen-activated protein kinase 3 (P27361 whole entry): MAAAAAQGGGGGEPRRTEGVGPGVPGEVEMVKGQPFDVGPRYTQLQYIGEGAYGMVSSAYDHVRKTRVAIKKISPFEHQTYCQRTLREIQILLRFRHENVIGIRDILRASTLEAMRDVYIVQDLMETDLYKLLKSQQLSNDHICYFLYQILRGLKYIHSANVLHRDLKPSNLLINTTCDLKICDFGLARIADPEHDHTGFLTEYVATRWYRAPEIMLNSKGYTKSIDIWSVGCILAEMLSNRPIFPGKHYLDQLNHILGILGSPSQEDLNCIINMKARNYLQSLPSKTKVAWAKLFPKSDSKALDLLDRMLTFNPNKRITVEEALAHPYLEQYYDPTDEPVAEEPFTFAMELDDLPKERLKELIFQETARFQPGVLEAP

[5] = biological target: Serine/threonine-protein kinase SBK1 (Homo sapiens) (UniProt Q52WX2); test: Selectivity interaction (KinomeScan (DiscoverX)) EUB0000695a SBK1; details: at 100 nM
Chain of Serine/threonine-protein kinase SBK1 (Homo sapiens) (Q52WX2 whole entry, the tested form may be a part): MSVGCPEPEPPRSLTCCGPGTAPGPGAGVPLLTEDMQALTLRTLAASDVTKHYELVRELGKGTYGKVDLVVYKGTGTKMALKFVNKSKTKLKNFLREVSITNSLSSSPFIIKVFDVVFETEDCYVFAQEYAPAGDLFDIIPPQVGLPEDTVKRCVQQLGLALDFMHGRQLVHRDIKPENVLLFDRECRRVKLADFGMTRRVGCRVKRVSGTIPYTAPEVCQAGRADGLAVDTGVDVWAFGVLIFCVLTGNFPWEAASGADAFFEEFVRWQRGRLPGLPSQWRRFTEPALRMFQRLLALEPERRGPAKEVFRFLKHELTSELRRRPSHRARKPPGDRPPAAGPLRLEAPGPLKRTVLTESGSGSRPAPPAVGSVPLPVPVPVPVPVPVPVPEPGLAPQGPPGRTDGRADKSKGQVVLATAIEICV

[6] = biological target: T2, Phosphatidylinositol 3-kinase C2 domain-containing subunit gamma (Homo sapiens) (UniProt O75747); test: Selectivity interaction (KinomeScan (DiscoverX)) EUB0001049a PIK3C2G; details: at 1 µM
T2 sequence (whole entry): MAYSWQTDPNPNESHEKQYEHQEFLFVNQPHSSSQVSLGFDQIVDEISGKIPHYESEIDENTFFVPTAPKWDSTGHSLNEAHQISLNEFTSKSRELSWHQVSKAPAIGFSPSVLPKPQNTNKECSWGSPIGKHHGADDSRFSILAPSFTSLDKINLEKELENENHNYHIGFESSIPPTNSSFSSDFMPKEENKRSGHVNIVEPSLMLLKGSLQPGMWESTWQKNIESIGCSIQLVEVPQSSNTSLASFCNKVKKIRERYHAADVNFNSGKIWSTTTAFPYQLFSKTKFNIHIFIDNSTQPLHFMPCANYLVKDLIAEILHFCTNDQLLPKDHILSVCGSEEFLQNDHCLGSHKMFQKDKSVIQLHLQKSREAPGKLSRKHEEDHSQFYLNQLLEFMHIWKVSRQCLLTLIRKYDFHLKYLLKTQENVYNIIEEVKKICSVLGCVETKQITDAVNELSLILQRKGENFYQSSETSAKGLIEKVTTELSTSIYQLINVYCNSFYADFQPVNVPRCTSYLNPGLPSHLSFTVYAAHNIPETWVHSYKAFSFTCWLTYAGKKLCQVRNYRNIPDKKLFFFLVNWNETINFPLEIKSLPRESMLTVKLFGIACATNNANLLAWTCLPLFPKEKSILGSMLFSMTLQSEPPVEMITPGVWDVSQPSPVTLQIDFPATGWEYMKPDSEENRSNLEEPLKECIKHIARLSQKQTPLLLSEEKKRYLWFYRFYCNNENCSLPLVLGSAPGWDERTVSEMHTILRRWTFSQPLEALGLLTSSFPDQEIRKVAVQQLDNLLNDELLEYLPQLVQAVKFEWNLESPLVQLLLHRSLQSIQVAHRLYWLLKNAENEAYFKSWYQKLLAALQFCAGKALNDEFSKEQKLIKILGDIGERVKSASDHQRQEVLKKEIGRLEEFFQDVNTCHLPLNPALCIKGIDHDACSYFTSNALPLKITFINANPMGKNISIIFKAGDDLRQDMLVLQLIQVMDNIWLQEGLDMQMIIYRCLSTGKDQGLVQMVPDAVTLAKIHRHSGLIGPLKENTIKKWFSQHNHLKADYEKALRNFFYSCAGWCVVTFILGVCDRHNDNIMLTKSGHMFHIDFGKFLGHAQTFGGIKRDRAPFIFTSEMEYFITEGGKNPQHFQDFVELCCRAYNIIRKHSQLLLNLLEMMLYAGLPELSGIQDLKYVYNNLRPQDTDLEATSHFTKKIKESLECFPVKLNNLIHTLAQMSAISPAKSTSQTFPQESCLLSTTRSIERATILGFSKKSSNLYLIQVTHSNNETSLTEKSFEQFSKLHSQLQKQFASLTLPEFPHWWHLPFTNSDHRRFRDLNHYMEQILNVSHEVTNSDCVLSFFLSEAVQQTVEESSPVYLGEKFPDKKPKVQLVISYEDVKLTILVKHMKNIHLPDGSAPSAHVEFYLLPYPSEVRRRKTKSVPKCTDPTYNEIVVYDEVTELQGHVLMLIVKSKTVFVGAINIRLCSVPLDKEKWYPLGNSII

SMILES: CNC(=O)Nc1ccc(-c2nc(N3CC4CCC(C3)O4)c3cnn(C4CCC5(CC4)OCCO5)c3n2)cc1
% of inhibition [1]: 2%

% of inhibition (Insulin receptor): 5%
SMILES: Cc1ccc(-c2ccc3c(ccc4sc5c(c43)NC[C@@H](C)NC5=O)n2)cn1

% of inhibition [2]: 15.4% | % of inhibition [3]: -5.2%
SMILES: CC[C@@H]1[C@H](F)C(=O)N[C@@H]1COc1nccc2cc(C(N)=O)c(OC)cc12 [ZIMLOVISERTIB]

% of control ([4]; at 1 µM): 101% | % of control ([4]; at 5 µM): 99%
SMILES: C=CC(=O)Nc1cccc(C(=O)Nc2ccc(Nc3cc(-c4[nH]c(SC)nc4C)ccn3)cc2)c1

SMILES: Cc1cc(F)c(C(=O)Nc2cccc(-c3nncn3C(C)C)n2)cc1-n1cnc(C2CC2)c1
% of control [5]: 93%

SMILES: COc1cc(Nc2nc(C)cc(-c3cnn4nc(OC)ccc34)n2)cc(C(F)(F)F)c1
% of control [6]: 89%
